According to PubChem BioAssay AID1259408 (Genetic Toxicology Data Bank (GENE-TOX), 2018):
The source made the active and inactive calls. No rule for the calls is given here.

System: GENE-TOX genotoxicity assays, various organisms and cells
Assay: GENE-TOX mutagenicity studies
Details: for call: Assay Type: In vivo carcinogenicity studies
[1] = Species/Cell Type: Nonhuman, Assay Code: CCG+, Evaluation Type: Evaluation A (Pre-1980)
[2] = Species/Cell Type: Salmonella typhimurium (one or more of the five standard strains: TA98, TA100, TA1535, TA1537, and TA1538), Assay Type: Histidine reverse gene mutation, Ames assay, Assay Code: SALT, Evaluation Type: Evaluation A (Pre-1980)
[3] = Species/Cell Type: Escherichia coli polA (W3119 vs P3478), Assay Type: Rec-assay, DNA effects (bacterial DNA repair), Assay Code: RE1T, Evaluation Type: Evaluation A (Pre-1980)
[4] = Species/Cell Type: Nonhuman, Assay Code: CCG+L, Evaluation Type: Evaluation A (Pre-1980)
[5] = Species/Cell Type: Nonhuman, Assay Type: Sister-chromatid exchange (SCE) in vitro, Assay Code: SC2+D, Dose Response: With dose response, Evaluation Type: Evaluation B (Post-1980)

For `COS(=O)(=O)OC`, the mutagenic call (Species/Cell Type: Arabidopsis species, Assay Type: Gene mutation, Assay Code: ARM+, Evaluation Type: Evaluation A (Pre-1980)) was “active; positive”, the mutagenic call (Species/Cell Type: Aspergillus nidulans, Assay Type: Forward gene mutation, Assay Code: ASF+, Evaluation Type: Evaluation A (Pre-1980)) was “active; positive” and the mutagenic call (Species/Cell Type: Chinese hamster ovary (CHO) cells, Assay Type: Forward gene mutation at the HPRT locus, Assay Code: CHO+D, Dose Response: With dose response, Evaluation Type: Evaluation A (Pre-1980)) was “active; positive”. For the same compound, the mutagenic call (Species/Cell Type: Drosophila melanogaster, Assay Type: Aneuploidy, partial sex chromosome loss, chromosome aberrations, Assay Code: DAP-M, Evaluation Type: Evaluation A (Pre-1980)) was “inactive; negative”, the mutagenic call (Species/Cell Type: Drosophila melanogaster, Assay Type: Aneuploidy, whole sex chromosome loss, chromosome aberrations, Assay Code: DAC+M, Evaluation Type: Evaluation A (Pre-1980)) was “active; positive” and the mutagenic call (Species/Cell Type: Drosophila melanogaster, Assay Type: Sex-linked recessive lethal gene mutation, Assay Code: SRL+, Evaluation Type: Evaluation A (Pre-1980)) was “active; positive”. For the same compound, the mutagenic call (Species/Cell Type: Drosophila melanogaster, Sex: Male, Assay Type: Heritable translocation test, chromosome aberrations, Assay Code: DHT+, Evaluation Type: Evaluation A (Pre-1980)) was “active; positive”, the mutagenic call (Species/Cell Type: Escherichia coli polA (W3119 vs P3478), Assay Type: Rec-assay, DNA effects (bacterial DNA repair), Assay Code: RE1+, Evaluation Type: Evaluation A (Pre-1980)) was “active; positive” and the mutagenic call (Species/Cell Type: Human, Assay Type: Sister-chromatid exchange (SCE) in vitro, Assay Code: SC1+D, Dose Response: With dose response, Evaluation Type: Evaluation A (Pre-1980)) was “active; positive”. The mutagenic call (Species/Cell Type: Nonhuman, Assay Type: Chromosome aberrations in vitro, Assay Code: CY&+, Evaluation Type: Evaluation A (Pre-1980)) was “active; positive”, the call [1] was “active; positive” and the mutagenic call (Species/Cell Type: Nonhuman, Assay Type: Sister-chromatid exchange (SCE) in vitro, Assay Code: SC2+, Evaluation Type: Evaluation A (Pre-1980)) was “active; positive”. The mutagenic call (Species/Cell Type: Saccharomyces cerevisiae, Assay Type: Reverse gene mutation, Assay Code: YER+, Evaluation Type: Evaluation A (Pre-1980)) was “active; positive”, the mutagenic call [2] was “no conclusion” and the mutagenic call (Species/Cell Type: Salmonella typhimurium, Assay Type: Forward and reverse gene mutation, host-mediated assay, Assay Code: HMA+, Evaluation Type: Evaluation A (Pre-1980)) was “active; positive”. The mutagenic call (Species/Cell Type: Schizosaccharomyces pombe, Assay Type: Reverse gene mutation, Assay Code: YEZ+, Evaluation Type: Evaluation A (Pre-1980)) was “active; positive”.
`CCCN(CCC)C(=O)SCC` was tested, and the mutagenic call (Species/Cell Type: Neurospora crassa, Assay Type: Aneuploidy, chromosome aberrations, Assay Code: NEN-, Evaluation Type: Evaluation A (Pre-1980)) was “inactive; negative” and the mutagenic call (Species/Cell Type: Zea mays (corn), Assay Type: Gene mutation, Assay Code: ZEM-, Evaluation Type: Evaluation A (Pre-1980)) was “inactive; negative”.
In the case of `C[n+]1c(-c2ccc(N)cc2)c2cc(N)ccc2c2ccc(N)cc21`, the mutagenic call (Species/Cell Type: Salmonella typhimurium (one or more of the five standard strains: TA98, TA100, TA1535, TA1537, and TA1538), Assay Type: Histidine reverse gene mutation, Ames assay, Assay Code: SAL+, Evaluation Type: Evaluation A (Pre-1980)) is reported as “active; positive”.
For `Cc1ccccc1O`, the mutagenic call (Species/Cell Type: Allium cepa, Assay Type: Chromosome aberrations, Assay Code: ALCT, Evaluation Type: Evaluation A (Pre-1980)) was “no conclusion”, the mutagenic call (Species/Cell Type: Human lymphocytes, Assay Type: Sister-chromatid exchange (SCE) in vitro, Assay Code: SCLT, Evaluation Type: Evaluation B (Post-1980)) was “no conclusion” and the mutagenic call (Species/Cell Type: Human, Assay Type: Sister-chromatid exchange (SCE) in vitro, Assay Code: SC1+, Evaluation Type: Evaluation B (Post-1980)) was “active; positive”. The mutagenic call (Species/Cell Type: Nonhuman, Assay Type: Sister-chromatid exchange (SCE) in vivo, Assay Code: SC3T, Evaluation Type: Evaluation B (Post-1980)) was “no conclusion”.
In the case of `CN(CCCCC(=O)OC[C@H](N)C(=O)O)N=O`, the mutagenic call (Species/Cell Type: Escherichia coli polA (W3110 vs P3478), Assay Type: Rec-assay, DNA effects (bacterial DNA repair), Assay Code: RE2T, Evaluation Type: Evaluation A (Pre-1980)) is reported as “no conclusion” and the mutagenic call [3] is reported as “no conclusion”.
In the case of `COC1=CC(=O)C[C@@H](C)[C@]12Oc1c(Cl)c(OC)cc(OC)c1C2=O`, the mutagenic call (Species/Cell Type: Allium cepa, Assay Type: Chromosome aberrations, Assay Code: ALC+, Evaluation Type: Evaluation A (Pre-1980)) is reported as “active; positive”, the mutagenic call (Species/Cell Type: Aspergillus nidulans, Assay Type: Aneuploidy, chromosome aberrations, Assay Code: ASN+, Evaluation Type: Evaluation A (Pre-1980)) is reported as “active; positive” and the mutagenic call (Species/Cell Type: Aspergillus nidulans, Assay Type: Mitotic recombination, Assay Code: ASGT, Evaluation Type: Evaluation A (Pre-1980)) is reported as “no conclusion”. The mutagenic call (Species/Cell Type: Bacillus subtilis (H17 vs M45), Assay Type: Rec-assay, spot test, DNA effects (bacterial DNA repair), Assay Code: REWT, Evaluation Type: Evaluation A (Pre-1980)) was “no conclusion”, the mutagenic call [3] was “no conclusion” and the mutagenic call (Species/Cell Type: Mammalian polychromatic erythrocytes, Assay Type: Micronucleus test, chromosome aberrations, Assay Code: MNTT, Evaluation Type: Evaluation A (Pre-1980)) was “no conclusion”. The mutagenic call (Species/Cell Type: Mouse, Sex: Male, Assay Type: Sperm morphology, Assay Code: SPI+, Evaluation Type: Evaluation A (Pre-1980)) was “active; positive”, the call [4] was “active; positive” and the mutagenic call (Species/Cell Type: Nonhuman, Assay Type: Sister-chromatid exchange (SCE) in vivo, Assay Code: SC3+D, Dose Response: With dose response, Evaluation Type: Evaluation B (Post-1980)) was “active; positive”. The mutagenic call (Species/Cell Type: Saccharomyces cerevisiae, Assay Type: Mitotic recombination or gene conversion, Assay Code: YEH-, Evaluation Type: Evaluation A (Pre-1980)) was “inactive; negative” and the mutagenic call [2] was “no conclusion”.
For `Nc1ccc2nc3ccc(N)cc3[n+](-c3ccccc3)c2c1`, the mutagenic call (Species/Cell Type: Drosophila melanogaster, Assay Type: Sex-linked recessive lethal gene mutation, Assay Code: SRLT, Evaluation Type: Evaluation A (Pre-1980)) was “no conclusion”.
With `CCN(CC)CCOc1ccc(C(=C(Cl)c2ccccc2)c2ccccc2)cc1` the mutagenic call (Species/Cell Type: Human, Sex: Male, Assay Type: Sperm morphology, Assay Code: SPHT, Evaluation Type: Evaluation A (Pre-1980)) was “no conclusion” and the mutagenic call (Species/Cell Type: Mammalian polychromatic erythrocytes, Assay Type: Micronucleus test, chromosome aberrations, Assay Code: MNTT, Evaluation Type: Evaluation B (Post-1980)) was “no conclusion”.
In the case of `O=C(COc1ccc(Br)cc1CN1CCOCC1)N/N=C/c1ccccc1O`, the mutagenic call (Species/Cell Type: Saccharomyces cerevisiae, Assay Type: Reverse gene mutation, Assay Code: YERT, Evaluation Type: Evaluation A (Pre-1980)) is reported as “no conclusion”.
For `C=COC(C)=O`, the mutagenic call (Species/Cell Type: Human lymphocytes, Assay Type: Sister-chromatid exchange (SCE) in vitro, Assay Code: SCL+D, Dose Response: With dose response, Evaluation Type: Evaluation B (Post-1980)) was “active; positive”, the mutagenic call (Species/Cell Type: Human, Assay Type: Sister-chromatid exchange (SCE) in vitro, Assay Code: SC1+D, Dose Response: With dose response, Evaluation Type: Evaluation B (Post-1980)) was “active; positive” and the mutagenic call (Species/Cell Type: Mammalian polychromatic erythrocytes, Assay Type: Micronucleus test, chromosome aberrations, Assay Code: MNT+, Evaluation Type: Evaluation B (Post-1980)) was “active; positive”. The call [4] was “active; positive”, the mutagenic call [5] was “active; positive” and the mutagenic call (Species/Cell Type: Salmonella typhimurium (one or more of the five standard strains: TA98, TA100, TA1535, TA1537, and TA1538), Assay Type: Histidine reverse gene mutation, Ames assay, Assay Code: SAL-, Evaluation Type: Evaluation A (Pre-1980)) was “inactive; negative”. The mutagenic call (Species/Cell Type: Syrian hamster embryo (SA7/SHE) cells, Assay Type: Cell transformation, viral enhanced, Assay Code: CT7+, Evaluation Type: Evaluation A (Pre-1980)) was “active; positive”.
`O=c1[nH]c(=O)n([C@H]2C[C@H](O)[C@@H](CO)O2)cc1Cl` was tested, and the mutagenic call (Species/Cell Type: Chinese hamster ovary (CHO) cells, Assay Type: Forward gene mutation at the HPRT locus, Assay Code: CHO+, Evaluation Type: Evaluation B (Post-1980)) was “active; positive” and the mutagenic call [5] was “active; positive”.
With `Nc1ccc(Cl)cc1N` the call [1] was “active; positive”.
